Experimental data as given in PMC11459172 (Proceedings of the National Academy of Sciences of the …, 2024).

Assays:
PARP1 = PARP1 (Homo sapiens, UniProt P09874); assay: In vitro PARP1 autoPARylation reaction with recombinant HTT-HAP40, western blot; format: biochemical; details: 10 fmol recombinant PARP1, 2 h at 30 °C, increasing amounts of HTT-HAP40
[1] = Fluorescence polarization with FAM-labeled 11-mer or 26-mer PAR; format: binding; details: 25 nM FAM-labeled PAR, up to 10 μM protein
PARP1/2 = format: cell-based, human; details: TruHD fibroblasts, HD vs control; as Fig 3B; SI Fig S6C
PARG = PARG (Homo sapiens, UniProt Q86W56); format: cell-based; details: TruHD fibroblasts, HD vs control
Sequence of PARG (Q86W56 whole entry): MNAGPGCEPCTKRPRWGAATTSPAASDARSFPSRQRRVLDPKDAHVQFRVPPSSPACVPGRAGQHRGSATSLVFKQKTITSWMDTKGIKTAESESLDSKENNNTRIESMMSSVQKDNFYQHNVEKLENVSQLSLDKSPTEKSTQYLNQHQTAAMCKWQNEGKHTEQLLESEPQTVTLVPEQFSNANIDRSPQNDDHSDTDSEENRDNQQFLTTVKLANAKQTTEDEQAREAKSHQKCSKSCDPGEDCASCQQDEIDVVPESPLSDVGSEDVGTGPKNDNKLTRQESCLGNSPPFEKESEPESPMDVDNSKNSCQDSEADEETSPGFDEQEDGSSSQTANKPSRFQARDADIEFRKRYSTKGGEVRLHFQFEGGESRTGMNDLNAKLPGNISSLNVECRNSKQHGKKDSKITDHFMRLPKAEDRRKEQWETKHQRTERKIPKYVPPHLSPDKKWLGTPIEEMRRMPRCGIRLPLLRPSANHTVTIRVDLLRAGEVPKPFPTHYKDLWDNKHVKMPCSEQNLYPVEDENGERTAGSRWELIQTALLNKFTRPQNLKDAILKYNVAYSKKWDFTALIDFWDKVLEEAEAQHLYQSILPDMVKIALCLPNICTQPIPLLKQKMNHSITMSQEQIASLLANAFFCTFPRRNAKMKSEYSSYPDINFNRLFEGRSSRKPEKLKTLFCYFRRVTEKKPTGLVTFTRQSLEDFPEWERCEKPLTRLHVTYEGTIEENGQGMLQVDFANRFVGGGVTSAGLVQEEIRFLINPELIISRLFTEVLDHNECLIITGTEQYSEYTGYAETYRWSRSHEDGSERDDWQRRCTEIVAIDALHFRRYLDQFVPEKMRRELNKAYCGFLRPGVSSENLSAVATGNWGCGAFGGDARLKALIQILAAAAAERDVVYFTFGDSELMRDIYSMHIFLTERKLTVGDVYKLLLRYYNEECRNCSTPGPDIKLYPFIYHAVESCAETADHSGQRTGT

Sequence of PARP1 (P09874 whole entry): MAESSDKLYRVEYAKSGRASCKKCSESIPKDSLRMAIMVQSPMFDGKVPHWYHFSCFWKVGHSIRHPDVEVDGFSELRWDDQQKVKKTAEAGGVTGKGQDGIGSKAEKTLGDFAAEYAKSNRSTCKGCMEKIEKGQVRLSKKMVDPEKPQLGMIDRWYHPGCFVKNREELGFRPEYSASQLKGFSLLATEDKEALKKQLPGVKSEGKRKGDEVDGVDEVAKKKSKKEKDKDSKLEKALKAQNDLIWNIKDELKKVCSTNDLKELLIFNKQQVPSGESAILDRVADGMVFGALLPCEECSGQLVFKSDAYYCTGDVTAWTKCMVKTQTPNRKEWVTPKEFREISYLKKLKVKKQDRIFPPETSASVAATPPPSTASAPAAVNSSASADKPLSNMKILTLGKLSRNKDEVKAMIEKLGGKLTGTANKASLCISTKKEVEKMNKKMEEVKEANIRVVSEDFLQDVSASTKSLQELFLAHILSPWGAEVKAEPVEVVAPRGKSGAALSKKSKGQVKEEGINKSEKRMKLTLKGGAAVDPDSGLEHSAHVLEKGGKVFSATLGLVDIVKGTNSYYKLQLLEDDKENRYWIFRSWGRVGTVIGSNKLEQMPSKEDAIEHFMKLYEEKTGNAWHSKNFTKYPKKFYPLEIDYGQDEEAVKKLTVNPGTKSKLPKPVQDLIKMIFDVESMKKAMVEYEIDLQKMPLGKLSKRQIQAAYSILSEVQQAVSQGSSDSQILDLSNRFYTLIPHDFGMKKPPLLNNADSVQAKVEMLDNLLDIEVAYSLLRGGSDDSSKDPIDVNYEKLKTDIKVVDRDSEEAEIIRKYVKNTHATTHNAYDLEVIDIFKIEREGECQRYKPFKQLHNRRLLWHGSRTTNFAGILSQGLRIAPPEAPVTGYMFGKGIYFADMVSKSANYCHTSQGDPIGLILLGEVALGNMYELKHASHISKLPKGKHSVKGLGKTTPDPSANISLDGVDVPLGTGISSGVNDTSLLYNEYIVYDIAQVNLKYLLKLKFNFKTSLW

wild-type HTT: purified recombinant wild-type huntingtin in complex with HAP40, Q23
Effect on PARP1 autoPARylation activity (PARP1): stimulated PARP1 activity in a dose-dependent manner
PAR binding by fluorescence polarization ([1]; listed as HTT): binds long (26-mer) PAR chains, in preference to shorter (11-mer) substrates
PAR binding by fluorescence polarization ([1]; listed as HTT-HAP40 Q23): lower binding than the positive control PAR-binding protein HUWE1, but higher binding than the negative control non-PAR-binding protein USP5

Cn1ncnc1[C@H]1c2n[nH]c(=O)c3cc(F)cc(c23)N[C@@H]1c1ccc(F)cc1 [talazoparib]
PARP inhibitor IC50, HD cells compared to controls (PARP1/2): reduced IC50 in HD cells

PDD00017273
PARG inhibitor IC50, HD compared to control cells (PARG): no difference between HD and control cells
